Read-outs that look alike come from different tables or passages of the source.
Legend:
[1] = test system: HIV; assay: microbe, parasite or virus in culture; format: cell-based; settings: Human immunodeficiency virus 1, 10 min
[2] = test system: NDV; assay: microbe, parasite or virus in culture; format: cell-based, Newcastle disease virus; settings: avian paramyxovirus 1, 10 min
[3] = test system: EBOV; assay: microbe, parasite or virus in culture; format: cell-based, Ebola Zaire; settings: Zaire ebolavirus, 10 min, read-out: IC50 EBOV
[4] = test system: H1N1; assay: microbe, parasite or virus in culture; format: cell-based, Influenza A A/PR/8/34 (H1N1); settings: read-out: IC50 H1N1
[5] = test system: NiV; assay: microbe, parasite or virus in culture; format: cell-based, Nipah virus Malaysia
[6] = test system: HeV; assay: microbe, parasite or virus in culture; format: cell-based, Hendra virus; settings: Henipavirus hendraense, 10 min, read-out: IC50 HeV
[7] = test system: RVFV; assay: microbe, parasite or virus in culture; format: cell-based, Rift Valley fever MP-12 (vaccine strain); settings: Rift Valley fever virus, 10 min, read-out: IC50 RVFV
[8] = test system: SFV; assay: microbe, parasite or virus in culture; format: cell-based; settings: Semliki Forest virus, BHK, 10 min, read-out: IC50 SFV
[9] = test system: HSV; assay: microbe, parasite or virus in culture; format: cell-based, Herpes simplex virus-1; settings: Human alphaherpesvirus 1, 10 min
[10] = test system: CMV; assay: microbe, parasite or virus in culture; format: cell-based, Cytomegalovirus (strain T3259)
[11] = test system: VSV; assay: microbe, parasite or virus in culture; format: cell-based; settings: Vesicular stomatitis virus, 10 min, read-out: IC50 VSV
[12] = test system: Ad5; format: cell-based, Adenovirus serotype 5; settings: non-enveloped virus; 10 min white light exposure of treated virus
[13] = test system: RABV; assay: microbe, parasite or virus in culture; format: cell-based; settings: Lyssavirus rabies, 10 min, read-out: IC50 RABV
[14] = Absorbance spectra / UV-visible spectra integration; format: physicochemical
[15] = Singlet oxygen quantum yield measurements; format: physicochemical
[16] = Singlet oxygen quenching measurements; format: physicochemical; settings: 355 nm with C60 as external sensitizer; error is one standard deviation
[17] = test system: HIV-1JR-CSF; format: cell-based
[18] = test system: RVFV ZH501; format: in vivo, Balb/c mice
[19] = Clinical observations after single dose in PK study; format: in vivo, female Balb/c mice; settings: single dose 10 mg/kg ip
Method: Dose administration. […] These mice were replaced and the dose level was reduced to 5 mg/kg. […] Hypoactivity was the only clinical observation noted in some of the mice treated with the 3 test articles at 10 and 100 mg/kg po. […] These animals were replaced and administered with the lower ip dose level of 1.25 mg/kg and underwent blood collections. Mice received single ip doses of 1.25 mg/kg (JL109 and JL118) or 5 mg/kg (JL122) and po doses of 10 mg/kg (JL109, JL118, JL122), 50 mg/kg (JL109, JL118), or 100 mg/kg (JL109, JL118, JL122).

[20] = in vitro; settings: human
[21] = Pharmacokinetics in mice; settings: for bioavailability: female, Balb/c, mouse, in vivo
[22] = Membrane partition into POPC LUV (fluorescence)
[23] = Membrane partition into HIV membrane-like mixture LUV (fluorescence)

CCN1C(=S)O/C(=C\c2ccc(-c3ccccc3OC)o2)C1=S [JL103, (Z) 3-Ethyl-5-[5-(2-methoxyphenyl)-furan-2-ylmethylene]oxazolid-ine-2,4-dithione]
IC50 ([1]; read-out: IC50 HIV): 13 nM
IC50 ([1]; read-out: IC50 ± SD (nM) (N=x) HIV): 12.2 ± 9.7 nM
IC50 ([2]; read-out: IC50 NDV): 4 nM
IC50 ([2]; read-out: IC50 ± SD (nM) (N=x) NDV): 5.7 ± 6.4 nM
IC50 [3]: 185 nM
IC50 ([4]; Influenza A virus, H1N1, 10 min): 1.7 nM
IC50 [4]: 2 nM
IC50 ([5]; Henipavirus nipahense, 10 min, read-out: IC50 NiV, 10 min white light exposure of treated virus): 3.9 nM
IC50 ([5]; read-out: IC50 NiV, 10 min white light exposure of treated virus): 4 nM
IC50 [6]: 0.5 nM
IC50 [7]: 3 nM
IC50 [8]: 44 nM
IC50 ([9]; read-out: IC50 HSV): 2 nM
IC50 ([9]; read-out: IC50 ± SD (nM) (N=x) HSV): 1.9 ± 2.5 nM
IC50 ([10]; Human betaherpesvirus 5, 10 min, read-out: IC50 CMV, 10 min white light exposure of treated virus): 5 nM
IC50 ([10]; read-out: IC50 CMV, 10 min white light exposure of treated virus): 4 nM
IC50 [11]: 11 nM
IC50 Ad5 [12]: inactive
IC50 [13]: 260 nM
Abs Max (λmax) ([14]; 100 µM in DMSO): 515 nm
AUC (400-750 nm) ([14]; integrated absorption divided by concentration, normalized relative to LJ001 (LJ001 = 100)): 153
total integrated absorption (AUC), times that of LJ001 ([14]; λ = 400 to 750 nm): 1.53 times
QY at 355 nm, times higher than LJ001 ([15]; 355 nm): about 2 times
1O2 QY 355 nm ([15]; in CD2Cl2, excitation 355 nm, error is one standard deviation): 0.36 ± 0.02
1O2 QY 532 nm ([15]; in CD2Cl2, excitation 532 nm, error is one standard deviation): 0.30 ± 0.03
kT × 10-7 [16]: 0.636 ± 0.030 M-1s-1
reduction of antiviral activity at physiological Hct [17]: > 50%
time-to-death / survival compared to untreated controls ([18]; 20 pfu RVFV ZH501 IP, IP once a day for 7 days from 1 h post-challenge, JL118 1.25 mg/kg, JL122 and JL103 10 mg/kg): no significant effect on survival
Median survival ([18]; 50 pfu RVFV ZH501 IP, 10 mg/kg IP at 1, 12, 24 and 48 h post-challenge, n = 5): 3 days
clinical observations [19]: appeared normal
CC50 [20]: 9140 nM
bioavailability ([21]; ip, 10 mg/kg): ~50%
bioavailability ([21]; po, 100 mg/kg): 3.1 to 105%
improvements in relevant pharmacokinetic (PK) parameters compared to LJ001 ([21]; half-life, AUC, bioavailability, clearance): > 10 fold
Kp at 10 min, 50 µM [22]: 580
IL / Iw ([22]; POPC LUV, fluorescence intensity ratio from curve fitting): 14.78
Kp at 10 min, 50 µM [23]: 310
IL / Iw ([23]; HIV-like mixture LUV, fluorescence intensity ratio from curve fitting): 68.29

— PMC3630091, “A Mechanistic Paradigm for Broad-Spectrum Antivirals that Target Virus-Cell Fusion” (PLoS Pathogens, 2013)
